A short description of series [1]: Stability in liver microsomes, rat. Here is the method:
(§1) Mixed-gender human liver microsomes, male Sprague-Dawley rat liver microsomes, and male Beagle dog liver microsomes were purchased from XenoTech. The reaction mixture, minus NADPH, was prepared as described below. […] An aliquot of the reaction mixture (without cofactor) was equilibrated in a shaking water bath at 37° C. for 5 minutes. The reaction was initiated by the addition of cofactor, and the mixture was incubated in a shaking water bath at 37° C. Aliquots (200 μL) were withdrawn at 0, 10, 20, 30, and 60 minutes. Test article samples were immediately combined with 400 μL of ice-cold acetonitrile (ACN) to terminate the reaction. […] The samples were then mixed and centrifuged to precipitate proteins. Aliquots of the supernatant were removed, diluted 1:1 into distilled water containing internal standard, and analyzed by LC-MS/MS against calibration standards prepared in a matched matrix. All samples were analyzed for the dosed prodrugs as well as the drug, treprostinil. The test article concentration was compared to the concentration at time 0 to determine the percent of test article remaining at each time point. Half-lives and clearance were calculated using GraphPad software, fitting to a single-phase exponential decay equation.
(§2) • Liver Microsomes 0.5 mg/mL • NADPH (cofactor) 1 mM • Potassium Phosphate, pH 7.4 100 mM • Magnesium Chloride 5 mM • Test Article 1 μM
(In general: Liver microsomes are vesicles of endoplasmic reticulum, rich in cytochrome P450 enzymes.)

The nature of series [2]: Stability in liver microsomes, human. Particulars: for AUC: human. Here is the method: as §1, §2
Series [3] in a line: Stability in cryopreserved hepatocytes, rat. The settings on record: for AUC: rat. Here is the method: (§3) Mixed-gender human cryopreserved hepatocytes, male Sprague-Dawley rat cryopreserved hepatocytes, and male Beagle dog cryopreserved hepatocytes were purchased from XenoTech. The hepatocytes were thawed and prepared according to the vendor's instructions, pooled into Krebs Henseleit buffer (KHB, pH 7.4), and kept on ice prior to the experiments. […] The final DMSO content in the incubation mixture was ≤0.1%. […] Aliquots of the test article were withdrawn (n=1) at 0, 15, 30, 60, and 120 minutes. […] Aliquots of 7-HC were withdrawn (n=1) at 0 and 15 minutes. The reaction was immediately terminated by adding two volumes of ice-cold acetonitrile (ACN) to the test article samples and three volumes of ACN containing internal standard to the positive control samples. The samples were then mixed and centrifuged to precipitate proteins. An aliquot of the supernatant was then diluted with water and analyzed by LC-MS/MS against calibration standards prepared in a matched matrix. […] All test article samples were analyzed for the dosed prodrugs as well as the drug, treprostinil. The test article concentration was compared to the concentration at time 0 to determine the percent of test article remaining at each time point. Half-lives and clearance values were calculated using GraphPad software, fitting to a single-phase exponential decay equation.

Series [4] in a line: Stability in cryopreserved hepatocytes, human. The settings on record: for AUC: human. How it is done: as §3
Series [5] is described as follows: Stability in cryopreserved hepatocytes, dog. Particulars: for AUC: dog. How it is done:
as §3

For series [6] the following is noted: rat.
A short description of series [7]: Stability in liver microsomes, dog. Here is the method: as §1, §2
The conditions of series [8]: dog.

Where two headings read alike, the source gives them in different places.

One may read the AUC as concentration integrated over time. Low values mean low exposure, high ones high exposure.

As for `CCCCCC(CCC1C(O)CC2Cc3c(cccc3OCC(=O)O)CC21)OC(=O)c1ccc(C(F)(F)F)cc1` (centres unmarked) [LXII], in series [1], the “Trep Concentration 0 min” value was 0.0741 µM, the “Trep Concentration 10 min” value came to 0.0998 µM, the “Trep Concentration 20 min” value is 0.124 µM and the “Trep Concentration 30 min” value turned out to be 0.139 µM. Besides, the “Trep Concentration 60 min” value in series [1] was found to be 0.139 µM. For the same molecule, in series [2], the “Trep Concentration 0 min” value came out at 0.0917 µM, the “Trep Concentration 10 min” value stood at 0.141 µM, the “Trep Concentration 20 min” value is 0.174 µM and the “Trep Concentration 30 min” value worked out at 0.2 µM. In series [2], the “Trep Concentration 60 min” value turned out to be 0.206 µM and the AUC came out at 10.70 µmol·min/L. Besides, in series [3], the “Trep Concentration (μM) 0 min” value was determined as 0.00378 µM, the “Trep Concentration (μM) 15 min” value is 0.0946 µM, the “Trep Concentration (μM) 30 min” value was found to be 0.156 µM and the “Trep Concentration (μM) 60 min” value was found to be 0.227 µM. Further, in series [3], the “Trep Concentration (μM) 120 min” value turned out to be 0.264 µM and the “AUC” value came to 23.09 µmol·min/L. Also, in series [4], the “Trep Concentration (μM) 0 min” value was 0 µM, the “Trep Concentration (μM) 15 min” value was determined as 0.0881 µM, the “Trep Concentration (μM) 30 min” value was found to be 0.14 µM and the “Trep Concentration (μM) 60 min” value stood at 0.194 µM. For the same molecule, in series [4], the “Trep Concentration (μM) 120 min” value turned out to be 0.222 µM and the “AUC” value was determined as 19.86 µmol·min/L. Further, in series [5], the “Trep Concentration (μM) 0 min” value was 0 µM, the “Trep Concentration (μM) 15 min” value was determined as 0.0486 µM, the “Trep Concentration (μM) 30 min” value stood at 0.0833 µM and the “Trep Concentration (μM) 60 min” value is 0.128 µM. In series [5], the “Trep Concentration (μM) 120 min” value is 0.166 µM and the “AUC” value turned out to be 13.34 µmol·min/L. In addition, in series [6], the AUC was 7.47 µmol·min/L. Further, in series [7], the “Trep Concentration 0 min” value came to 0.127 µM, the “Trep Concentration 10 min” value worked out at 0.188 µM, the “Trep Concentration 20 min” value stood at 0.254 µM and the “Trep Concentration 30 min” value amounted to 0.3 µM. Moreover, in series [7], the “Trep Concentration 60 min” value amounted to 0.372 µM. Also, in series [8], the AUC was found to be 16.64 µmol·min/L.
`CCCCCC(CCC1C(O)CC2Cc3c(cccc3OCC(=O)O)CC21)OC(=O)COc1ccccc1` (centres unmarked) [LXV]: in series [1], the “Trep Concentration 0 min” value was 0.889 µM, the “Trep Concentration 10 min” value turned out to be 0.898 µM, the “Trep Concentration 20 min” value was 0.885 µM and the “Trep Concentration 30 min” value is 0.888 µM. In addition, in series [1], the “Trep Concentration 60 min” value is 0.738 µM. In series [2], the “Trep Concentration 0 min” value was found to be 0.921 µM, the “Trep Concentration 10 min” value was 0.762 µM, the “Trep Concentration 20 min” value came out at 0.67 µM and the “Trep Concentration 30 min” value was determined as 0.594 µM. In series [2], the “Trep Concentration 60 min” value amounted to 0.351 µM and the AUC was 36.07 µmol·min/L. In series [3], the “Trep Concentration (μM) 0 min” value worked out at 0.0517 µM, the “Trep Concentration (μM) 15 min” value turned out to be 0.379 µM, the “Trep Concentration (μM) 30 min” value is 0.289 µM and the “Trep Concentration (μM) 60 min” value is 0.237 µM. Further, in series [3], the “Trep Concentration (μM) 120 min” value was found to be 0.2 µM and the “AUC” value amounted to 29.24 µmol·min/L. Further, in series [4], the “Trep Concentration (μM) 0 min” value came to 0.0193 µM, the “Trep Concentration (μM) 15 min” value came to 0.559 µM, the “Trep Concentration (μM) 30 min” value stood at 0.515 µM and the “Trep Concentration (μM) 60 min” value stood at 0.452 µM. In series [4], the “Trep Concentration (μM) 120 min” value came out at 0.39 µM and the “AUC” value is 52.16 µmol·min/L. In addition, in series [5], the “Trep Concentration (μM) 0 min” value is 0.0135 µM, the “Trep Concentration (μM) 15 min” value is 0.484 µM, the “Trep Concentration (μM) 30 min” value is 0.465 µM and the “Trep Concentration (μM) 60 min” value is 0.406 µM. In addition, in series [5], the “Trep Concentration (μM) 120 min” value amounted to 0.373 µM and the “AUC” value came out at 47.28 µmol·min/L. In series [6], this molecule gave an AUC of 51.11 µmol·min/L. Besides, in series [7], the “Trep Concentration 0 min” value was determined as 0.903 µM, the “Trep Concentration 10 min” value is 0.912 µM, the “Trep Concentration 20 min” value worked out at 0.864 µM and the “Trep Concentration 30 min” value is 0.801 µM. Further, in series [7], the “Trep Concentration 60 min” value is 0.728 µM. Moreover, the AUC in series [8] was 49.22 µmol·min/L.
`CCCCCC(CCC1C(O)CC2Cc3c(cccc3OCC(=O)O)CC21)OC(=O)c1ccc(O)c(O)c1` (centres unmarked) [LXVI]: in series [1], the “Trep Concentration 0 min” value was determined as 0 µM, the “Trep Concentration 10 min” value is 0.00332 µM, the “Trep Concentration 20 min” value worked out at 0.00368 µM and the “Trep Concentration 30 min” value amounted to 0.00422 µM. Also, the “Trep Concentration 60 min” value in series [1] was found to be 0.00722 µM. In addition, in series [2], the “Trep Concentration 0 min” value was 0.0131 µM, the “Trep Concentration 10 min” value amounted to 0.0155 µM, the “Trep Concentration 30 min” value came out at 0.0168 µM and the “Trep Concentration 60 min” value was determined as 0.0141 µM. The AUC in series [2] worked out at 0.94 µmol·min/L. In addition, in series [3], the “Trep Concentration (μM) 0 min” value stood at 0 µM, the “Trep Concentration (μM) 15 min” value worked out at 0 µM, the “Trep Concentration (μM) 30 min” value was 0 µM and the “Trep Concentration (μM) 60 min” value turned out to be 0 µM. Further, in series [3], the “Trep Concentration (μM) 120 min” value stood at 0 µM and the “AUC” value amounted to 0.00 µmol·min/L. For the same molecule, in series [4], the “Trep Concentration (μM) 0 min” value is 0 µM, the “Trep Concentration (μM) 15 min” value was determined as 0.0209 µM, the “Trep Concentration (μM) 30 min” value came out at 0.0147 µM and the “Trep Concentration (μM) 60 min” value was determined as 0.0184 µM. In series [4], the “Trep Concentration (μM) 120 min” value stood at 0.0237 µM and the “AUC” value was determined as 2.18 µmol·min/L. In addition, in series [5], the “Trep Concentration (μM) 0 min” value is 0 µM, the “Trep Concentration (μM) 15 min” value was determined as 0 µM, the “Trep Concentration (μM) 30 min” value turned out to be 0 µM and the “Trep Concentration (μM) 60 min” value is 0 µM. Further, in series [5], the “Trep Concentration (μM) 120 min” value amounted to 0.00519 µM and the “AUC” value was determined as 0.16 µmol·min/L. This molecule had an AUC in series [6] of 0.26 µmol·min/L. In series [7], the “Trep Concentration 0 min” value stood at 0 µM, the “Trep Concentration 10 min” value came out at 0 µM, the “Trep Concentration 20 min” value is 0 µM and the “Trep Concentration 30 min” value turned out to be 0.00396 µM. The “Trep Concentration 60 min” value in series [7] stood at 0.00602 µM. Besides, the AUC in series [8] was 0.17 µmol·min/L.
Regarding `CCCCCC(CCC1C(O)CC2Cc3c(cccc3OCC(=O)O)CC21)OC(=O)OC` (centres unmarked) [IV], the AUC in series [2] is 16.85 µmol·min/L; in series [3], 70.03 µmol·min/L; in series [4], 39.76 µmol·min/L; in series [5] it was 47.99 µmol·min/L; in series [6], 49.70 µmol·min/L; in series [8], 55.95 µmol·min/L.
For `CCCCCC(O)CCC1C(O)CC2Cc3c(cccc3OCC(=O)NCC(=O)O)CC21` (centres unmarked) [VII], the AUC in series [2] worked out at 0.00 µmol·min/L; in series [3] it was 10.79 µmol·min/L; in series [4] it was 0.00 µmol·min/L; in series [5] it was 0.00 µmol·min/L; in series [6], 0.39 µmol·min/L; in series [8], 0.00 µmol·min/L.
With `CCCCCC(CCC1C(O)CC2Cc3c(cccc3OCC(=O)O)CC21)OC(=O)c1ccc(OC(F)(F)F)cc1` (centres unmarked) [LXIII], in series [1], the “Trep Concentration 0 min” value is 0.0393 µM, the “Trep Concentration 10 min” value is 0.0539 µM, the “Trep Concentration 20 min” value is 0.0653 µM and the “Trep Concentration 30 min” value is 0.0747 µM. Further, in series [1], the “Trep Concentration 60 min” value came to 0.0824 µM. In series [2], the “Trep Concentration 0 min” value turned out to be 0.12 µM, the “Trep Concentration 10 min” value amounted to 0.184 µM, the “Trep Concentration 20 min” value was 0.24 µM and the “Trep Concentration 30 min” value is 0.268 µM. Also, in series [2], the “Trep Concentration 60 min” value turned out to be 0.275 µM and the AUC was 14.33 µmol·min/L. The molecule also showed an AUC in series [6] of 4.12 µmol·min/L. Also, in series [7], the “Trep Concentration 0 min” value was determined as 0.104 µM, the “Trep Concentration 10 min” value came out at 0.16 µM, the “Trep Concentration 20 min” value was determined as 0.222 µM and the “Trep Concentration 30 min” value came to 0.243 µM. The “Trep Concentration 60 min” value in series [7] stood at 0.342 µM. In series [8], this molecule gave an AUC of 14.33 µmol·min/L.

For the origin of these results see patent US12491170B2, “Stable treprostinil prodrugs” (United Therapeutics Corporation, priority 2020, dated 2025).
